Each structure is given as a SMILES string. pIC50: −log10 of the molar value. Several values for one entry are separate records, joined by “and”; a condition that tells them apart may be missing. Equal values may be shown once.

In one experiment the target is T1, JAK3 (Homo sapiens, UniProt P52333).
T1 construct: purchased INVITROGEN PV3855
Description: standard kinase inhibition assay performed by Nanosyn. Type of experiment: biochemical. As to conditions: [Enzyme] 2 nM, [ATP] 2 μM, inc time 3 hr. The method, then: (§1) The following kinases were assayed according the table 4 below:
(§2) Compounds were tested in singlicates using 12 pt (3×-dilutions) dose response format with top concentration of 10 mM or 1 mM.

Another experiment has as its target T2, BMX (Homo sapiens, UniProt P51813).
T2 construct: purchased BPS 40402
T2 sequence (P51813 1-675): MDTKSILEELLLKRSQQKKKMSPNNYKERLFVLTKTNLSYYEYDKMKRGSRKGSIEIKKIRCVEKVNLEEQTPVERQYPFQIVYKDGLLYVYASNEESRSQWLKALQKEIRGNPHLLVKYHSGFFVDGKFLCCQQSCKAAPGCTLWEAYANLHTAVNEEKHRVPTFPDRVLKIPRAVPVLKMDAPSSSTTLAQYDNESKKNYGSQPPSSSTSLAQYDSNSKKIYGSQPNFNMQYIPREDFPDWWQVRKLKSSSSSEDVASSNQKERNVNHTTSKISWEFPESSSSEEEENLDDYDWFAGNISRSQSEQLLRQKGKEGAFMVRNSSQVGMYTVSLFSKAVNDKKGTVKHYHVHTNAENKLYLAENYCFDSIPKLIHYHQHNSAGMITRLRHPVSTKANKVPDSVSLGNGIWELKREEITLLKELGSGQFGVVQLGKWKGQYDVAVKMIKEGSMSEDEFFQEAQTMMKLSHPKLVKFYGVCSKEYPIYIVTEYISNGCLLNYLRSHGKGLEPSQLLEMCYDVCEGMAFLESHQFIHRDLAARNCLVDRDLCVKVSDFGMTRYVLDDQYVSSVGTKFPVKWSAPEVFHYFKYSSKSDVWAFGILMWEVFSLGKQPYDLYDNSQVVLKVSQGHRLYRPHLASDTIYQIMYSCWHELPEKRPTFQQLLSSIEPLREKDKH
The description is as above. Type of experiment: biochemical. Conditions: [Enzyme] 1.82 nM, [ATP] 75 μM, inc time 1 hr. The method, then: as §1, §2

In another experiment the target is T3, BLK (Homo sapiens, UniProt P51451).
T3 construct: purchased BPS 40401
T3 sequence (P51451 whole entry): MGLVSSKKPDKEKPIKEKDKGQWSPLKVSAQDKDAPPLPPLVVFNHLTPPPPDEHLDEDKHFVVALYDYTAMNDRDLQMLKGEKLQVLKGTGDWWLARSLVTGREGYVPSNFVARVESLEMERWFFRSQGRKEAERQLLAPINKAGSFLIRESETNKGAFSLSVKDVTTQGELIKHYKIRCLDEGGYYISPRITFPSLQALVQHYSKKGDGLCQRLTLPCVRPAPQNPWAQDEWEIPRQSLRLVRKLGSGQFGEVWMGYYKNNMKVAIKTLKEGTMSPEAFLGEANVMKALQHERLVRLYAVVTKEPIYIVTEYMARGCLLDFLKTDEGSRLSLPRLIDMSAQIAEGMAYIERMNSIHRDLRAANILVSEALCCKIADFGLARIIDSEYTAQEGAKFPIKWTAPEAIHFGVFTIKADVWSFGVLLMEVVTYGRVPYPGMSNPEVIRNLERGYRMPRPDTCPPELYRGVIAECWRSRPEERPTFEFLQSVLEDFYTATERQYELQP
Described as above. It is filed as biochemical. Conditions: [Enzyme] 0.4 nM, [ATP] 20 μM, inc time 1 hr. The protocol:
as §1, §2

A further experiment deals with T4, ITK (Homo sapiens, UniProt Q08881).
T4 construct: endogenous in cells; host or cells: Jurkat cell lysate
T4 sequence (Q08881 1-620): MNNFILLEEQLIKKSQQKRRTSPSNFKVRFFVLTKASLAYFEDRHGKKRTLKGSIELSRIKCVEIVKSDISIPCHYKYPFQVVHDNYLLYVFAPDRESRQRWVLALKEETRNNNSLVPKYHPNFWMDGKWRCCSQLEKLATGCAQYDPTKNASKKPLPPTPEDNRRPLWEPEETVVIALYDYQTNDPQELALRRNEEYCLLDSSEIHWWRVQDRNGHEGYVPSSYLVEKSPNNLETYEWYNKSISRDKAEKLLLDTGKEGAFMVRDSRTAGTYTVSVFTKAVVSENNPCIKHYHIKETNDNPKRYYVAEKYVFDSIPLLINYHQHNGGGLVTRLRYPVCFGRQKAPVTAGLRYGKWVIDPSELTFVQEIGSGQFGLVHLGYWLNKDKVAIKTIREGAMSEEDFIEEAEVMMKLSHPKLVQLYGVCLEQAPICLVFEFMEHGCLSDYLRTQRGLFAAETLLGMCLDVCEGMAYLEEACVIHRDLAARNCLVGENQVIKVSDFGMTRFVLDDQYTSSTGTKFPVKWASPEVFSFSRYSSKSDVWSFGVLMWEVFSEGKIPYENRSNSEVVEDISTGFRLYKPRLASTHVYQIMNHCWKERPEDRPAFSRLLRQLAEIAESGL
The description is as above. It is filed as biochemical. Conditions: [Enzyme] 1 nM, [ATP] 50 μM, inc time 3 hr. The protocol: as §1, §2

In a further experiment the target is T5, TEC (Homo sapiens, UniProt P42680).
T5 construct: purchased Millipore 14-801
T5 sequence (P42680 1-631): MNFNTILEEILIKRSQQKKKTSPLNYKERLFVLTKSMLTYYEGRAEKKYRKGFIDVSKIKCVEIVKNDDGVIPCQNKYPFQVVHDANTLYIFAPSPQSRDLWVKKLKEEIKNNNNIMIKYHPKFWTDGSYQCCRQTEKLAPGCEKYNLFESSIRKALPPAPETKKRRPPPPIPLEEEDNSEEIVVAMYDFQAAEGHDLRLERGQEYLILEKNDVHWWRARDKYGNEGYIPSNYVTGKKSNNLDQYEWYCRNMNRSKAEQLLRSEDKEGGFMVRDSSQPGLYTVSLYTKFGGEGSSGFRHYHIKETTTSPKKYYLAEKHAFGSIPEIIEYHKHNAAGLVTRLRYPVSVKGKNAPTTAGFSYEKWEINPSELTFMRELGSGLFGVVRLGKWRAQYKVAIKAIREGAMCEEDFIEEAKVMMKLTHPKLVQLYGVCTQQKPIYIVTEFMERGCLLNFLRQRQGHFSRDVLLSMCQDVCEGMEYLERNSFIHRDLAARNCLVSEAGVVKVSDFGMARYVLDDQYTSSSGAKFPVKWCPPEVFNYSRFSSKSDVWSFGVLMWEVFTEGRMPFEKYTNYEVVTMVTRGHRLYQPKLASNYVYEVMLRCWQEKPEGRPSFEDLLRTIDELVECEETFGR
The experiment is described as above. Conditions: [Enzyme] 4.6 nM, [ATP] 12 μM, inc time 1 hr. Type of experiment: biochemical. The protocol: as §1, §2

The target in experiment [1] is T6, BTK (Homo sapiens, UniProt Q06187). The experiment is described as above. It is filed as biochemical. As to conditions: [Enzyme] 0.95 nM, [ATP] 20 μM, inc time 1 hr. The method, then: as §1, §2
T6 sequence (Q06187 whole entry): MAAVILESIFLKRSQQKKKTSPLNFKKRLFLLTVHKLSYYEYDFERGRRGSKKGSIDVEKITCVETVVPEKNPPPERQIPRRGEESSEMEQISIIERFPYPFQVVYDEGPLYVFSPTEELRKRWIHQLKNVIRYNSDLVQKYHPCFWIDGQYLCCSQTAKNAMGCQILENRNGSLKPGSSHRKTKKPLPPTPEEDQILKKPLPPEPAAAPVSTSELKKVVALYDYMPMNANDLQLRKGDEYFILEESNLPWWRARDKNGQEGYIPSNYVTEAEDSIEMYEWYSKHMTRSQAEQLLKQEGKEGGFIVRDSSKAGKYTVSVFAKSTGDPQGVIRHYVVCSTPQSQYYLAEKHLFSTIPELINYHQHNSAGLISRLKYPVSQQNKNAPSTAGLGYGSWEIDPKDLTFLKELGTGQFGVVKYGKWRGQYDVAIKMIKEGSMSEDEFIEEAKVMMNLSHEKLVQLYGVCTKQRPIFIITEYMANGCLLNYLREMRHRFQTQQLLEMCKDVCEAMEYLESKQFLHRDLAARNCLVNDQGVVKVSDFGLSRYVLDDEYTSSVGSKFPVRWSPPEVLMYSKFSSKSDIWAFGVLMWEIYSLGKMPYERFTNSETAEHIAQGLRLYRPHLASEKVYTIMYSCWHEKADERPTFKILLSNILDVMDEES
The next experiment deals with T7, SRC (Homo sapiens, UniProt P12931).
T7 construct: purchased INVITROGEN P3044
T7 sequence (P12931 whole entry): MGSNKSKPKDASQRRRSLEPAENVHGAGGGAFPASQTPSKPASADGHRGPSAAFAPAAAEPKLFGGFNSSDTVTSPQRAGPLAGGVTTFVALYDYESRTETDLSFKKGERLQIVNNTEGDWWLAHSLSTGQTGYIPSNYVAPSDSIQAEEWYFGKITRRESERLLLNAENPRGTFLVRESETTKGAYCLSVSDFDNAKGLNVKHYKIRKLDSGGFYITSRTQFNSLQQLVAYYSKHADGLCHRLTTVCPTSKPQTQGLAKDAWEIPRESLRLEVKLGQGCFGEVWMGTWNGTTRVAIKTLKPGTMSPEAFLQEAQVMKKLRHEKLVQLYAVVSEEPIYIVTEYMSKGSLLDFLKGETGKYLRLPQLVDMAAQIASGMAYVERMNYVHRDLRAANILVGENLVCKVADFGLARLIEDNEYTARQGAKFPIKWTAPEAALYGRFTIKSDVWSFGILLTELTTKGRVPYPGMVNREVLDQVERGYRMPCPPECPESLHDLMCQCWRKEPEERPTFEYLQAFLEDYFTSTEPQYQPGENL
The description is as above. Conditions: [Enzyme] 3 nM, [ATP] 25 μM, inc time 1 hr. Type of experiment: biochemical. The protocol:
as §1, §2

A further experiment addresses T8, LCK (Homo sapiens, UniProt P06239).
T8 construct: purchased INVITROGEN P3043
The experiment is described as above. Conditions: [Enzyme] 0.4 nM, [ATP] 50 μM, inc time 1 hr. It is filed as biochemical. The method, then:
as §1, §2

The target of experiment [2] is T6, BTK. Briefly: Comparison of biotinylated probes, streptavidin coated plate BTK occupancy assay. It is filed as binding. Details: Positive Control lysates from BTK expressing cell line (DOHH2); endogenous in cells; host or cells: DOHH2 cell lysate. Conditions: DOHH2 lysate, high and low probe concentrations. The method, then: Selected biotinylated probes were tested for use in target occupancy assays using either the anti-protein antibody coated plate or streptavidin coated plate assay formats. The following probes were tested:
Stock solutions (5 mM and 10 mM) of the probes were prepared as follows. […] For the assays 50× probe was prepared fresh the day of the assay: 1 μl of 5 mM probe to […] PBS.
1) Dilute lysate to desired concentration with PBS to final volume of 500 μl
2) Add Biotinylated probe (final concentration 2.5 μM) to lysate, 37 C for 1 hr
3) Block streptavidin plate w/ 1% BSA, RT, 1 hr, wash w/ PBST 3×
4) Stop reaction by transfer samples onto ice for 10 min, then bring back to RT
5) Add 100 ul treated lysate (in triplicate) to streptavidin plate, RT, 2 hr w/ rocking
6) Wash with 200 μl PBST, 5×
7) Add 100 μl 2nd Ab-HRP, incubate at RT for 1 hr
8) Wash with 200 μl PBST, 3×
9) Add 100 μl TMB, incubate at RT for 10 min
10) Add 50 μl stop solution

T8 sequence (P06239 whole entry): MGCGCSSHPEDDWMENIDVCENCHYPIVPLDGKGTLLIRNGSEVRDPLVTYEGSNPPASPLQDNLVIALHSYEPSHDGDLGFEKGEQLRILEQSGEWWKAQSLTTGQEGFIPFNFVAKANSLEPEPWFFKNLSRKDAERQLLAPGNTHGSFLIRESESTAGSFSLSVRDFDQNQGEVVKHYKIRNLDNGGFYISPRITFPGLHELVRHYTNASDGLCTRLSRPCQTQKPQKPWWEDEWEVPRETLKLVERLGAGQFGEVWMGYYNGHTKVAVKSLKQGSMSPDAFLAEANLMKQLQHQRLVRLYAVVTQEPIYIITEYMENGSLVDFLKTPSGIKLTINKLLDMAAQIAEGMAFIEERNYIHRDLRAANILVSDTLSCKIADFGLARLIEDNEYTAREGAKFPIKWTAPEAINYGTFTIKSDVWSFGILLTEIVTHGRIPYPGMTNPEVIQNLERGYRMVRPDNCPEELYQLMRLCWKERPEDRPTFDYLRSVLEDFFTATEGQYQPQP
T1 sequence (P52333 781-1124 limits assumed): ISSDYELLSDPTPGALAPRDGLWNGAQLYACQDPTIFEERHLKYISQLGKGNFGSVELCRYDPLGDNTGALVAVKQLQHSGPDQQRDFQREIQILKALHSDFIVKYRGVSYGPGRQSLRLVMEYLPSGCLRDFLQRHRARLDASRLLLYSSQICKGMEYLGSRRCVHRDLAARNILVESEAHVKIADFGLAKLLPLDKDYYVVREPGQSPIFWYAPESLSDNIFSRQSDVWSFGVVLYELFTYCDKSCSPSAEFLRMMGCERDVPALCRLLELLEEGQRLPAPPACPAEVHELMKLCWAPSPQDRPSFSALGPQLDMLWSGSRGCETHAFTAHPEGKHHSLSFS

On to `CN(C/C=C/C(=O)N1CCC[C@@H](n2nc(-c3ccc(Oc4ccccc4)cc3)c3c(N)ncnc32)C1)CCCCNC(=O)CCCC(=O)NCCCOCCOCCOCCCNC(=O)CCCC[C@@H]1SC[C@@H]2NC(=O)N[C@@H]21` [Compound I-5], for which the pIC50 (usually the negative decadic logarithm of the IC50, by convention in mol/L) at JAK3 is 5.31 and 5.27; against BMX, 8.25 and 8.35; against BLK it was 8.37 and 8.44; against ITK it was 6.70 and 6.73; at TEC, 8.64 and 8.77; against BTK [1], 8.99 and 9.12. In addition, the pIC50 against SRC is 7.44 and 7.47; against LCK, 8.16 and 8.22. Further, at BTK [2], the “signal for binding to BTK out of the probes tested” value was “highest signal”.

Source of the values: patent US20150260723A1, “COMPANION DIAGNOSTICS FOR TEC FAMILY KINASE INHIBITOR THERAPY” (PHARMACYCLICS, INC., priority 2012, published 2015).
